Patent publication US10925823B2, “Synergistic antioxidant compositions” (The Procter & Gamble Company, priority 2018, dated 2021)

Assay: Oxygen Radical Absorbance Capacity (ORAC) Peroxynitrite Assay
Conditions: Trolox equivalent; SIN-1 as peroxynitrite source, dihydrorhodamine-123 probe, 37° C.; FIG. 4
From the text: The ORAC assay is the most common method for assessing antioxidant activity. It is based on evaluating the capacity of a test material to protect a probe (e.g., a chromagen) from its damage by oxygen radicals (in this case, peroxynitrite). Results are expressed as micromole Trolox Equivalency per gram of the test material:
This methodology is further discussed in: “Development and validation of an improved oxygen radical absorbance capacity assay using fluorescein as the fluorescent probe.”; Ou, Boxin, Maureen Hampsch-Woodill, and Ronald L. Prior. Journal of agricultural and food chemistry 49.10 (2001): 4619-4626 incorporated herein by reference; and further in “Development and validation of oxygen radical absorbance capacity assay for lipophilic antioxidants using randomly methylated β-cyclodextrin as the solubility enhancer.”, Huang, Dejian, et al. Journal of Agricultural and Food Chemistry 50.7 (2002): 1815-1821, incorporated herein by reference.
Experimental Methodology: The ORAC Peroxynitrite measures the peroxynitrite radical. […] Dihydrorhodamine-123 is the chosen target protein, whose loss of fluorescence (with excitation at 485 nm and emission at 528 nm) is an indication of the extent of damage from its reaction with the peroxynitrite radical. […] Kinetic fluorescence profile is detected using Biotek plate reader with excitation at 485 nm and emission at 528 nm, at 37° C. […]

[O-]n1ccccc1=S.[O-]n1ccccc1=S.[Zn+2] [ZPT, zinc salt of 1-hydroxy-2-pyridinethione]
ORAC peroxynitrite antioxidant activity: only individual material that showed appreciable activity
